From patent US8952024B2, “Herbicidal pyrimidone derivatives” (E I du Pont de Nemours and Company, priority 2009, dated 2015)

Tests used:
Assay in all cases: Test B pre-/postemergence plant response
Type in all cases: in vivo
[1] = test system: downy bromegrass (Bromus tectorum)
Method in brief: (§1)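 Visual injury, 0–100 scale (100 = complete control), rated against controls after 13 to 15 days in greenhouse. Pre-emergence: seeds in loam/sand soil, treated at planting. Post-emergence: 1- to 4-leaf plants (2 to 18 cm) in peat/vermiculite medium. Compounds formulated in non-phytotoxic solvent with surfactant.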

soybean (Glycine max) = test system: soybean (Glycine max)
Method in brief: as §1

[2] = test system: Italian ryegrass (Lolium multiflorum)
Method in brief: as §1

[3] = test system: green foxtail (Setaria viridis)
Method in brief: as §1

[4] = test system: johnsongrass (Sorghum halepense)
Method in brief: as §1

[5] = test system: velvetleaf (Abutilon theophrasti)
Method in brief: as §1

[6] = test system: morningglory (Ipomoea coccinea)
Method in brief: as §1

[7] = test system: giant foxtail (Setaria faberii)
Method in brief: as §1

[8] = test system: pigweed (Amaranthus retroflexus)
Method in brief: as §1

[9] = 62 g ai/ha, postemergence, 0 is no effect, 100 is complete control, 13 to 15 days

O=C1CCCC(O)=C1C(=O)c1cnc(-c2ccccc2)n(C2CCCCC2)c1=O [Compound 128, 3-cyclohexyl-5-[(2-hydroxy-6-oxo-1-cyclohexen-1-yl)carbonyl]-2-phenyl-4(3H)-pyrimidinone]
Bromegrass, Downy plant response rating (0 to 100 scale) [1, 9]: 35 | pest or weed control at 31 g/ha ([1]; Bromus tectorum, post-emergence, Postemergence, 31 g ai/ha, 0 to 100 scale (0 no effect, 100 complete control), read-out: Plant response rating, Bromegrass, Downy): 30% | pest or weed control at 125 g/ha ([1]; Bromus tectorum, post-emergence, Postemergence, 125 g ai/ha, scale 0 to 100 (0 no effect, 100 complete control), read-out: Plant response rating, Bromegrass, Downy): 40% | pest or weed control at 250 g/ha ([1]; Bromus tectorum, post-emergence, Postemergence, 250 g ai/ha, scale 0 to 100 (0 no effect, 100 complete control), 13 to 15 days, read-out: Plant response rating, Bromegrass, Downy): 50% | Soybean plant response rating (0 to 100 scale) (soybean (Glycine max); [9]): 98 | plant injury at 31 g/ha (soybean (Glycine max); Glycine max, post-emergence, Postemergence, 31 g ai/ha, 0 to 100 scale (0 no effect, 100 complete control), read-out: Plant response rating, Soybean): 98% | plant injury at 125 g/ha (soybean (Glycine max); Glycine max, post-emergence, Postemergence, 125 g ai/ha, scale 0 to 100 (0 no effect, 100 complete control), read-out: Plant response rating, Soybean): 98% | plant injury at 250 g/ha (soybean (Glycine max); Glycine max, post-emergence, Postemergence, 250 g ai/ha, scale 0 to 100 (0 no effect, 100 complete control), 13 to 15 days, read-out: Plant response rating, Soybean): 98% | Ryegrass, Italian plant response rating (0 to 100 scale) [2, 9]: 0 | pest or weed control at 31 g/ha ([2]; Lolium multiflorum, post-emergence, Postemergence, 31 g ai/ha, 0 to 100 scale (0 no effect, 100 complete control), read-out: Plant response rating, Ryegrass, Italian): 0% | pest or weed control at 125 g/ha ([2]; Lolium multiflorum, post-emergence, Postemergence, 125 g ai/ha, scale 0 to 100 (0 no effect, 100 complete control), read-out: Plant response rating, Ryegrass, Italian): 5% | pest or weed control at 250 g/ha ([2]; Lolium multiflorum, post-emergence, Postemergence, 250 g ai/ha, scale 0 to 100 (0 no effect, 100 complete control), 13 to 15 days, read-out: Plant response rating, Ryegrass, Italian): 30% | Foxtail, Green plant response rating (0 to 100 scale) [3, 9]: 95 | pest or weed control at 31 g/ha ([3]; Setaria viridis, post-emergence, Postemergence, 31 g ai/ha, 0 to 100 scale (0 no effect, 100 complete control), read-out: Plant response rating, Foxtail, Green): 85% | pest or weed control at 125 g/ha ([3]; Setaria viridis, post-emergence, Postemergence, 125 g ai/ha, scale 0 to 100 (0 no effect, 100 complete control), read-out: Plant response rating, Foxtail, Green): 95% | pest or weed control at 250 g/ha ([3]; Setaria viridis, post-emergence, Postemergence, 250 g ai/ha, scale 0 to 100 (0 no effect, 100 complete control), 13 to 15 days, read-out: Plant response rating, Foxtail, Green): 98% | Johnsongrass plant response rating (0 to 100 scale) [4, 9]: 70 | pest or weed control at 31 g/ha ([4]; Sorghum halepense, post-emergence, Postemergence, 31 g ai/ha, 0 to 100 scale (0 no effect, 100 complete control), read-out: Plant response rating, Johnsongrass): 70% | pest or weed control at 125 g/ha ([4]; Sorghum halepense, post-emergence, Postemergence, 125 g ai/ha, scale 0 to 100 (0 no effect, 100 complete control), read-out: Plant response rating, Johnsongrass): 85% | pest or weed control at 250 g/ha ([4]; Sorghum halepense, post-emergence, Postemergence, 250 g ai/ha, scale 0 to 100 (0 no effect, 100 complete control), 13 to 15 days, read-out: Plant response rating, Johnsongrass): 85% | Velvetleaf plant response rating (0 to 100 scale) [5, 9]: 95 | pest or weed control at 31 g/ha ([5]; Abutilon theophrasti, post-emergence, 360 h, Postemergence, 31 g ai/ha, 0 to 100 scale (0 no effect, 100 complete control), read-out: Plant response rating, Velvetleaf): 90% | pest or weed control at 125 g/ha ([5]; Abutilon theophrasti, post-emergence, 360 h, Postemergence, 125 g ai/ha, scale 0 to 100 (0 no effect, 100 complete control), read-out: Plant response rating, Velvetleaf): 95% | pest or weed control at 250 g/ha ([5]; Abutilon theophrasti, post-emergence, 360 h, Postemergence, 250 g ai/ha, scale 0 to 100 (0 no effect, 100 complete control), 13 to 15 days, read-out: Plant response rating, Velvetleaf): 100% | Morningglory plant response rating (0 to 100 scale) [6, 9]: 80 | pest or weed control at 31 g/ha ([6]; Ipomoea, post-emergence, Postemergence, 31 g ai/ha, 0 to 100 scale (0 no effect, 100 complete control), read-out: Plant response rating, Morningglory): 80% | pest or weed control at 125 g/ha ([6]; Ipomoea, post-emergence, Postemergence, 125 g ai/ha, scale 0 to 100 (0 no effect, 100 complete control), read-out: Plant response rating, Morningglory): 90% | pest or weed control at 250 g/ha ([6]; Ipomoea, post-emergence, Postemergence, 250 g ai/ha, scale 0 to 100 (0 no effect, 100 complete control), 13 to 15 days, read-out: Plant response rating, Morningglory): 90% | Foxtail, Giant plant response rating (0 to 100 scale) [7, 9]: 95 | pest or weed control at 31 g/ha ([7]; Setaria faberi, post-emergence, Postemergence, 31 g ai/ha, 0 to 100 scale (0 no effect, 100 complete control), read-out: Plant response rating, Foxtail, Giant): 95% | pest or weed control at 125 g/ha ([7]; Setaria faberi, post-emergence, Postemergence, 125 g ai/ha, scale 0 to 100 (0 no effect, 100 complete control), read-out: Plant response rating, Foxtail, Giant): 98% | pest or weed control at 250 g/ha ([7]; Setaria faberi, post-emergence, Postemergence, 250 g ai/ha, scale 0 to 100 (0 no effect, 100 complete control), 13 to 15 days, read-out: Plant response rating, Foxtail, Giant): 98% | Pigweed plant response rating (0 to 100 scale) [8, 9]: 98 | pest or weed control at 31 g/ha ([8]; Amaranthus retroflexus, post-emergence, Postemergence, 31 g ai/ha, 0 to 100 scale (0 no effect, 100 complete control), read-out: Plant response rating, Pigweed): 95% | pest or weed control at 125 g/ha ([8]; Amaranthus retroflexus, post-emergence, Postemergence, 125 g ai/ha, scale 0 to 100 (0 no effect, 100 complete control), read-out: Plant response rating, Pigweed): 98% | pest or weed control at 250 g/ha ([8]; Amaranthus retroflexus, post-emergence, Postemergence, 250 g ai/ha, scale 0 to 100 (0 no effect, 100 complete control), 13 to 15 days, read-out: Plant response rating, Pigweed): 100%
